Source: patent EP0552417B1, “Cyclic peptides and use thereof” (priority 1991, dated 1993)
Non-standard residues stand in square brackets, D forms with d. Residues, ends and D or L forms follow the SMILES beside them. *: point of attachment. 1Nal = N[C@@H](Cc1cccc2ccccc12)C(=O)O; Bn = c1ccc(C*)cc1

biological target: T1, NK2 receptor (Bos taurus, UniProt P05363); test: Assay of affinity for receptor (3): binding inhibiting activity on NK2 receptor, 125I-neurokinin A, membrane fraction of bovine third stomach inner wall; settings: 125I-NKA, 25°C, 3 hours
T1 construct: The membrane fraction containing the receptor was prepared from the inner wall of the bovine third stomach; tissue Kyoto Chuo Chikusan Fukuseibutsu Oroshi Kyoukai (tissue); host or cells: inner wall of bovine third stomach, membrane fraction
T1 sequence (P05363 1-384): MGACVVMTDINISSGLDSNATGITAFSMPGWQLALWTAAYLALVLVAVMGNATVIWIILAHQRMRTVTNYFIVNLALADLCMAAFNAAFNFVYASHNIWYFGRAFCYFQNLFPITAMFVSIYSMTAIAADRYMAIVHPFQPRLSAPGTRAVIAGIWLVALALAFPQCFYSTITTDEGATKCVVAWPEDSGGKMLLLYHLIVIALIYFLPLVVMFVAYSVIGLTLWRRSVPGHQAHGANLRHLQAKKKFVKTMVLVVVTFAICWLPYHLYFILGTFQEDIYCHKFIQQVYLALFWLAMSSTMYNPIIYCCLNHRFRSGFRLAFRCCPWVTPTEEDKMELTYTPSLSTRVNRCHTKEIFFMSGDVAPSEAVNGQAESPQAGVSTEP
Procedure: Assay of Affinity for Receptor (3) ... Binding Inhibiting Activity on NK2 Receptor
The method of Paul L. M. Van Giersbergen et al. [Proc. Natl. Acad. Sci. U.S.A., 88, 1661 (1991) was modified for this assay. The membrane fraction containing the receptor was prepared from the inner wall of the bovine third stomach (purchased from Kyoto Chuo Chikusan Fukuseibutsu Oroshi Kyoukai).
The inner wall of the bovine third stomach stored at-80°C was cut to 1 cm X 1 cm or less, and disrupted in 3 liters/kg of 50 mM Tris-HCl buffer (pH 7.4) supplemented with 120 mM sodium chloride, 5 mM potassium chloride, 0.02% BSA and 5% sucrose, using a polytron homogenizer (Kinematika, Germany). Then, the disrupted product was centrifuged at 1,000 X g for 10 minutes. The supernatant was further centrifuged at 45,000 X g for 20 minutes. The precipitate was suspended in 200 ml of 50 mM Tris-HCl buffer (pH 7.4) supplemented with 300 mM potassium chloride, 10 mM ethylenediaminetetraacetic acid, 0.1 mM phenylmethylsulfonium fluoride and 0.02% BSA, and gently stirred under ice cooling for 60 minutes. The suspension was centrifuged at 45,000 X g for 20 minutes. The precipitate was washed with 200 ml of 50 mM Tris-HCl buffer (pH 7.4), and stored in the frozen state at -40°C as a receptor sample.
This sample was suspended in a reaction buffer solution [50 mM Tris-HCl buffer (pH 7.4), 0.02% bovine serum albumin and 4 mM manganese chloride] so as to give a protein concentration of 0.7 mg/ml, and 100 µl thereof was used for reaction. A test sample and ^125I-NKA (0.61 KBq, ^125I-neurokinin A, 81.4 TBq/mmol, Du Pont/NEN Research Products, U.S.A.) were also added, and reacted in 0.2 ml of the reaction buffer solution at 25°C for 3 hours. The reaction mixture was rapidly filtered through a glass filter (GF/B, Whatman, U.S.A.) using a cell harvester (Type 290PHD, Cambridge Technology Inc.) to terminate the reaction, and washed 3 times with 250 µl of 50 mM Tris-HCl buffer (pH 7.4) supplemented with 0.02% bovine serum albumin. The radioactivity left on the filter was measured with a gamma-ray counter. Results are shown in Table 1 as the binding inhibiting activity (IC50, unit: µM) on the NK2 receptor.

Row | SMILES | IC50 [µM]
1 | CC(C)C[C@@H]1NC(=O)[C@@H](CC(C)C)NC(=O)[C@H](CC(=O)O)NC(=O)[C@H](Cc2c[nH]c3ccccc23)NC(=O)[C@@H](CC(=O)O)NC(=O)[C@@H](Cc2c[nH]c3ccccc23)NC1=O [Example 8, cyclo[-D-Asp-Trp-Asp-D-Leu-Leu-D-Trp-]] (cyclo(D[dL]L[dW][dD]W)) | 6.4
2 | CC(C)C[C@@H]1NC(=O)[C@@H](CC(C)C)NC(=O)[C@H](CC(=O)O)NC(=O)[C@H](Cc2cccc3ccccc23)NC(=O)[C@@H](CC(=O)O)NC(=O)[C@@H](Cc2c[nH]c3ccccc23)NC1=O [Example 23, Cyclo[-D-Asp-Nal(1)-Asp-D-Leu-Leu-D-Trp-]] (cyclo([1Nal]D[dL]L[dW][dD])) | 2.1
3 | CC(C)C[C@@H]1NC(=O)[C@@H](CC(C)C)NC(=O)[C@H](CCC(=O)O)NC(=O)[C@H](Cc2c[nH]c3ccccc23)NC(=O)[C@@H](CC(=O)O)NC(=O)[C@@H](Cc2c[nH]c3ccccc23)NC1=O [Example 34, Cyclo[-D-Asp-Trp-Glu-D-Leu-Leu-D-Trp-]] (cyclo(E[dL]L[dW][dD]W)) | 7.4

These reach a lower IC50. Values come first.

Row | IC50 [µM] | SMILES
4 | 0.052 | CC(C)C[C@@H]1NC(=O)[C@H](Cc2c[nH]c3ccccc23)NC(=O)[C@@H](CC(=O)O)NC(=O)[C@@H](Cc2c[nH]c3ccccc23)NC(=O)[C@H](CC(C)C)NC(=O)[C@@H](CC(C)C)NC1=O [Example 35, Cyclo[-D-Asp-Trp-Leu-D-Leu-Leu-D-Trp-]] (cyclo(L[dL]L[dW][dD]W))
5 | 1.1 | CC(C)C[C@@H]1NC(=O)[C@@H](CC(C)C)NC(=O)[C@@H]2CCCN2C(=O)[C@H](Cc2c[nH]c3ccccc23)NC(=O)[C@@H](CC(=O)O)NC(=O)[C@@H](Cc2c[nH]c3ccccc23)NC1=O [Example 36, Cyclo[-D-Asp-Trp-Pro-D-Leu-Leu-D-Trp-]] (cyclo(L[dW][dD]WP[dL]))
6 | 0.28 | CC(C)C[C@@H]1NC(=O)[C@@H](CC(C)C)NC(=O)[C@H](CO)NC(=O)[C@H](Cc2c[nH]c3ccccc23)NC(=O)[C@@H](CC(=O)O)NC(=O)[C@@H](Cc2c[nH]c3ccccc23)NC1=O [Example 37, Cyclo[-D-Asp-Trp-Ser-D-Leu-Leu-D-Trp-]] (cyclo(L[dW][dD]WS[dL]))
7 | 0.07 | CC(C)C[C@@H]1NC(=O)[C@@H](CC(C)C)NC(=O)[C@H](COCc2ccccc2)NC(=O)[C@H](Cc2c[nH]c3ccccc23)NC(=O)[C@@H](CC(=O)O)NC(=O)[C@@H](Cc2c[nH]c3ccccc23)NC1=O [Example 38, Cyclo[-D-Asp-Trp-Ser(Bzl)-D-Leu-Leu-D-Trp-]] (cyclo(L[dW][dD]WS(Bn)[dL]))
